Holding throughout (assay): DSF
Common to all, as to type: binding

The target of one test is T1, PKMYT1 (Homo sapiens, UniProt Q99640).
T1 construct: purchased in-house DSF panel (SGC Frankfurt)
T1 sequence (Q99640 75-362): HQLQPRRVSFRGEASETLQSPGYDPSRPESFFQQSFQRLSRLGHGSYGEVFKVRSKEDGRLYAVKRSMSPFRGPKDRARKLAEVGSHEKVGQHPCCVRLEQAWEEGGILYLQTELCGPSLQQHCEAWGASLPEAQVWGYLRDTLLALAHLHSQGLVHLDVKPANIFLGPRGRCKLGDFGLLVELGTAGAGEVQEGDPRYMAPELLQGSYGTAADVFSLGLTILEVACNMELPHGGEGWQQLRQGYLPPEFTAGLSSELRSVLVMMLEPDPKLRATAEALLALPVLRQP
The procedure: (§1) Recombinant protein kinase domains with a concentration of 2 μM were mixed with a 10 μM compound solution in DMSO, 20 mM HEPES, pH 7.5, and 500 mM NaCl. SYPRO Orange (5000×, Invitrogen) was added as a fluorescence probe (1 µl per mL). Subsequently, temperature-dependent protein unfolding profiles were measured, using the QuantStudio™ 5 realtime PCR machine (Thermo Fisher, Waltham, MA, USA). […] The temperature was raised with a step rate of 3 °C per minute. Data points were analyzed with the internal software (Thermal Shift SoftwareTM Version 1.4, Thermo Fisher) using the Boltzmann equation to determine the inflection point of the transition curve. Differences in melting temperature are given as ΔTm values in °C. Measurements were performed in duplicates.

A further test concerns the target T2, BMX (Homo sapiens, UniProt P51813).
T2 construct: purchased in-house DSF panel (SGC Frankfurt)
As for the experimental part:
as §1

A further test deals with T3, GAK (Homo sapiens, UniProt O14976).
T3 construct: purchased in-house DSF panel (SGC Frankfurt)
T3 sequence (O14976 14-351): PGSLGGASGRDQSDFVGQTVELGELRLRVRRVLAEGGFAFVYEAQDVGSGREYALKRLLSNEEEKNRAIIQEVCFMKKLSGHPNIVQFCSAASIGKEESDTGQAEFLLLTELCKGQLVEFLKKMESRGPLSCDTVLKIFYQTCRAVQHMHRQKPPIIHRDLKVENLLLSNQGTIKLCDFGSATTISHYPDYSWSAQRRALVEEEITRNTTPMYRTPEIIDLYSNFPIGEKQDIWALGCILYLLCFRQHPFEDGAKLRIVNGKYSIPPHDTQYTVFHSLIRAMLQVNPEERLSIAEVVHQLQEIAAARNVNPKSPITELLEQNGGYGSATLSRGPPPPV
The procedure: as §1

Another test deals with T4, CASK (Homo sapiens, UniProt O14936).
T4 construct: purchased in-house DSF panel (SGC Frankfurt)
T4 sequence (O14936 1-337): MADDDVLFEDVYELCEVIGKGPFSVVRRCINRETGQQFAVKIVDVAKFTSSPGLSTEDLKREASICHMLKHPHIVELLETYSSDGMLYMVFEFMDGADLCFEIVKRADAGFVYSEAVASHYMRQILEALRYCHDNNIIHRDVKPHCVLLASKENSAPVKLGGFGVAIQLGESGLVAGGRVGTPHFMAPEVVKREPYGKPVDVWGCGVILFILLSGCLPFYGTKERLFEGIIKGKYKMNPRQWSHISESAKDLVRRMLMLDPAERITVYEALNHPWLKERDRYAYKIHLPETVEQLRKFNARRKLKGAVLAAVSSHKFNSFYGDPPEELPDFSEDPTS
As for the experimental part: as §1

The next test has as its target T5, MAPK1 (Homo sapiens, UniProt P28482).
T5 construct: purchased in-house DSF panel (SGC Frankfurt)
The procedure:
as §1

Another test concerns the target T6, CAMK1G (Homo sapiens, UniProt Q96NX5).
T6 construct: purchased in-house DSF panel (SGC Frankfurt)
The procedure:
as §1

Another test addresses T7, ABL1 (Homo sapiens, UniProt P00519).
T7 construct: purchased in-house DSF panel (SGC Frankfurt)
T7 sequence (P00519 229-500): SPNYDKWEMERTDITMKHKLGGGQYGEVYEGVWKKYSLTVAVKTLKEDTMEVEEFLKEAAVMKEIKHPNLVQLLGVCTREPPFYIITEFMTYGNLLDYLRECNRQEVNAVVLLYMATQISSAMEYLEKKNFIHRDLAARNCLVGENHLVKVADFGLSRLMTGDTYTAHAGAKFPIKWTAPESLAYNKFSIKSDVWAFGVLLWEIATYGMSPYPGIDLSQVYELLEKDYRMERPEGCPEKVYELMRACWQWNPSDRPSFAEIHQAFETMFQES
As for the experimental part: as §1

The target in another test is T8, PHKG2 (Homo sapiens, UniProt P15735).
T8 construct: purchased in-house DSF panel (SGC Frankfurt)
T8 sequence (P15735 6-293): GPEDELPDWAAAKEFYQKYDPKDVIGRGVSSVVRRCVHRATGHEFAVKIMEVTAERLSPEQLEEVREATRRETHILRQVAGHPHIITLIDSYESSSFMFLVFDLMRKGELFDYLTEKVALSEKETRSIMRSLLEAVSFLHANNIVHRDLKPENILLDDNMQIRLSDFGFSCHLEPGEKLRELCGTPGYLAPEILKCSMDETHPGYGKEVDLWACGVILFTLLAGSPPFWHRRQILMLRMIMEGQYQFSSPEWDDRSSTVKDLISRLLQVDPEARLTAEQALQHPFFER
As for the experimental part: as §1

The target in a further test is T9, FES (Homo sapiens, UniProt P07332).
T9 construct: purchased in-house DSF panel (SGC Frankfurt)
T9 sequence (P07332 whole entry): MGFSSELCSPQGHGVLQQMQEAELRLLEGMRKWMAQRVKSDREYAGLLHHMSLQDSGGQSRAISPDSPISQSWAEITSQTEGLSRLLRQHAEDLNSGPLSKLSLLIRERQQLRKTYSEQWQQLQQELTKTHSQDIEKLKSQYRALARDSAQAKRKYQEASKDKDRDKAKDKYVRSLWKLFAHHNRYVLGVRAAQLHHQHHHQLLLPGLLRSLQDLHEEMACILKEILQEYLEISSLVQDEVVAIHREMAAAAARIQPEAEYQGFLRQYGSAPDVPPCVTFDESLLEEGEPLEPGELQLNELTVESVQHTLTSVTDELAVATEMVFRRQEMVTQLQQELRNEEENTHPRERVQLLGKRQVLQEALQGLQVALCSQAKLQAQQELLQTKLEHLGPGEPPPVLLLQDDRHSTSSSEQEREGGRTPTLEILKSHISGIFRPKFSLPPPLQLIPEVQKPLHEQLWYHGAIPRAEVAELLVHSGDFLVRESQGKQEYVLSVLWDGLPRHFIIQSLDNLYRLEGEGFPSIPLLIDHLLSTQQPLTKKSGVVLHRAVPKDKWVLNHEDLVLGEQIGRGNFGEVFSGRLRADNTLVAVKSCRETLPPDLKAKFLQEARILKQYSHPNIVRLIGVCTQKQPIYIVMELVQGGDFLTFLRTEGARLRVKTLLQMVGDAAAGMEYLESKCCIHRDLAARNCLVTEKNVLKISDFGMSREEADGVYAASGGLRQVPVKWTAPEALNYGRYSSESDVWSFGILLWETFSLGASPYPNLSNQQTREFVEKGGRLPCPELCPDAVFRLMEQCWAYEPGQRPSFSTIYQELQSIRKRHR
The procedure: as §1

The target in the next test is T10, CAMK1D (Homo sapiens, UniProt Q8IU85).
T10 construct: purchased in-house DSF panel (SGC Frankfurt)
T10 sequence (Q8IU85 23-279): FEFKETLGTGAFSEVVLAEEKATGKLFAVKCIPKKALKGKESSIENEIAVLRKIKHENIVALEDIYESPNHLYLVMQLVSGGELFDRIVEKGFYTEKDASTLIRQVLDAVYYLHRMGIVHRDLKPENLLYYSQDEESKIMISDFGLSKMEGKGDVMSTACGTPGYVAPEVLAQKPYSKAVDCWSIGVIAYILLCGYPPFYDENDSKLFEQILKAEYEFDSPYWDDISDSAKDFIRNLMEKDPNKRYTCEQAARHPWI
As for the experimental part: as §1

The next test concerns the target T11, CDKL1 (Homo sapiens, UniProt Q00532).
T11 construct: purchased in-house DSF panel (SGC Frankfurt)
As for the experimental part: as §1

The target of the next test is T12, CHEK2 (Homo sapiens, UniProt O96017).
T12 construct: purchased in-house DSF panel (SGC Frankfurt)
T12 sequence (O96017 210-531): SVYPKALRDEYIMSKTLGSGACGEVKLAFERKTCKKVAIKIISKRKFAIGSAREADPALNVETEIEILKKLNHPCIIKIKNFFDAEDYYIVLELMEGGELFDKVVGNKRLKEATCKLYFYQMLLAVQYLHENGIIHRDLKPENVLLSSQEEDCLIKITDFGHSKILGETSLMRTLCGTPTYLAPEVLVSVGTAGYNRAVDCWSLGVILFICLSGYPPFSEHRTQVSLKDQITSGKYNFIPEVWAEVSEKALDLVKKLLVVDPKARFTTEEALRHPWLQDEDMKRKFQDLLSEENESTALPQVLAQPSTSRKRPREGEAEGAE
The procedure:
as §1

A further test deals with T13, PDK4 (Homo sapiens, UniProt Q16654).
T13 construct: purchased in-house DSF panel (SGC Frankfurt)
T13 sequence (Q16654 whole entry): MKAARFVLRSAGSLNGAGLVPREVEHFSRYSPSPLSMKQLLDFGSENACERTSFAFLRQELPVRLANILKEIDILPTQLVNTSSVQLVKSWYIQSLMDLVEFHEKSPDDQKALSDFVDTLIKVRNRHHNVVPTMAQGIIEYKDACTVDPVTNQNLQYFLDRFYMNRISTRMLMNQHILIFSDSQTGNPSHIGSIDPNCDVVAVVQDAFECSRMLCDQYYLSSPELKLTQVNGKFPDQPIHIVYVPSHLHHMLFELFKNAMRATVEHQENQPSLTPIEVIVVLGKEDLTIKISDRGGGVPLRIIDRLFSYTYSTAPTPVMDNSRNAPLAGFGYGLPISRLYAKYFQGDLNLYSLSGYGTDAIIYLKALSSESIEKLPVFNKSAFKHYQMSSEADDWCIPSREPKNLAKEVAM
As for the experimental part:
as §1

A further test deals with T14, RIOK1 (Homo sapiens, UniProt Q9BRS2).
T14 construct: purchased in-house DSF panel (SGC Frankfurt)
T14 sequence (Q9BRS2 143-494): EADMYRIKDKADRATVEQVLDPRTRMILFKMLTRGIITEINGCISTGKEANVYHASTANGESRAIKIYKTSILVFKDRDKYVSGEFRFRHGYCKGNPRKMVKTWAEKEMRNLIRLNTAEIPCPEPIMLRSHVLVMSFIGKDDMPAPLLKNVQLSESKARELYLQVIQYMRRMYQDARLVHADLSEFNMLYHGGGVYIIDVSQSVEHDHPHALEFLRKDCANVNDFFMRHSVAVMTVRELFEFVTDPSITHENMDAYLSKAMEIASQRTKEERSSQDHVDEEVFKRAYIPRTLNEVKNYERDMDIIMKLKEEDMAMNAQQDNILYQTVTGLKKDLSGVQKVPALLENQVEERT
As for the experimental part: as §1

The values that follow come from publication PMC9736855, “Discovery of 3-Amino-1H-pyrazole-Based Kinase Inhibitors to Illuminate the Understudied PCTAIRE Family” (International Journal of Molecular Sciences, 2022).

Structures are written as SMILES.

T11 sequence (Q00532 1-303): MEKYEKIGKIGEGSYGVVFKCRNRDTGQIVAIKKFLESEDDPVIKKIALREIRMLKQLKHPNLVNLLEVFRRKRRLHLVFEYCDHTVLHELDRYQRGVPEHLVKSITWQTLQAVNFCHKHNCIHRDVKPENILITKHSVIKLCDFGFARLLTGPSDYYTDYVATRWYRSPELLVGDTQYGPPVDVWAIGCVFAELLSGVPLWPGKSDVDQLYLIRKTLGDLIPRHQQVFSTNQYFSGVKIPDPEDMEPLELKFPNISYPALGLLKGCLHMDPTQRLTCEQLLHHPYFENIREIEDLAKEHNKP
T5 sequence (P28482 whole entry): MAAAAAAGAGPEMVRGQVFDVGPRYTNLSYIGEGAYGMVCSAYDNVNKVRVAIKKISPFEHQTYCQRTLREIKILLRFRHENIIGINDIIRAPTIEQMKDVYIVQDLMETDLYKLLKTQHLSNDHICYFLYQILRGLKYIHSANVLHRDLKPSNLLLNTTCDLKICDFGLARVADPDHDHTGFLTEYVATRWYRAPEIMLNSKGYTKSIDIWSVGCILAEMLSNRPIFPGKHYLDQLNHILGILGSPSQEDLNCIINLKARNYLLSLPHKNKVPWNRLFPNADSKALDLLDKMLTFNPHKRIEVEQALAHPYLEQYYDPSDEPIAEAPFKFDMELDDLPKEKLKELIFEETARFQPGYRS
T6 sequence (Q96NX5 whole entry): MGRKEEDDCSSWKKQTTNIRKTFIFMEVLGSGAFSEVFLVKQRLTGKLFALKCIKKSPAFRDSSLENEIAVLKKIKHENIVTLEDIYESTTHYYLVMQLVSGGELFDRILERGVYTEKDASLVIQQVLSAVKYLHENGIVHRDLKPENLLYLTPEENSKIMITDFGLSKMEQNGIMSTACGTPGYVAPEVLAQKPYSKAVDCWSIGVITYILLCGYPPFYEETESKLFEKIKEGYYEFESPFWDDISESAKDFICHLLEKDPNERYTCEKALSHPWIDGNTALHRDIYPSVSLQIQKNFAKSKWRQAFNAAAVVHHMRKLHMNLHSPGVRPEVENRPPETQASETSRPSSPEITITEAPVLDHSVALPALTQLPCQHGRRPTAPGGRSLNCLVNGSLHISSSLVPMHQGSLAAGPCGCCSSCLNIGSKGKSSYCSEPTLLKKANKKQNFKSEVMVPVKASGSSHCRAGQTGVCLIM
T2 sequence (P51813 411-675): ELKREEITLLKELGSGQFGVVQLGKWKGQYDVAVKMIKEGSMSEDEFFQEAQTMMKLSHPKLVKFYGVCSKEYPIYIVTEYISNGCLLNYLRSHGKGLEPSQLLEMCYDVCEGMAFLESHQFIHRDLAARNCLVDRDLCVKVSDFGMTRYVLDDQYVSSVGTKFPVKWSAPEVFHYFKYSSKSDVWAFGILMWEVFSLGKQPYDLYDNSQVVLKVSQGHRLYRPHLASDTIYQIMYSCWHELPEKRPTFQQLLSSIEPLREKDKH

For `CC(C)(C)OC(=O)Nc1ccc(CNc2nccc(Nc3cc(C(=O)OC(C)(C)C)[nH]n3)n2)cc1` [43d, tert-butyl 3-((2-((4-((tert-butoxycarbonyl)amino)benzyl)amino)pyrimidin-4-yl)amino)-1H-pyrazole-5-carboxylate], at PKMYT1, the “ΔTm PKMYT1” value was -2.0 °C. Also, the “ΔTm BMX” value on BMX is -0.4 °C. Further, the “ΔTm GAK” value on GAK was -4.1 °C. In addition, the “ΔTm CASK” value at CASK worked out at 0.4 °C. On MAPK1, the “ΔTm MAPK1” value was found to be 0.0 °C. For the same compound, at CAMK1G, the “ΔTm CAMK1G” value is -0.7 °C. Also, the “ΔTm ABL1” value on ABL1 turned out to be 1.6 °C. For the same compound, the “ΔTm PHKG2” value at PHKG2 came to 0.5 °C. Moreover, the “ΔTm FES” value on FES came to 1.1 °C. Besides, on CAMK1D, the “ΔTm CAMK1D” value is -2.9 °C. At CDKL1, the “ΔTm CDKL1” value was 2.1 °C. Moreover, the “ΔTm CHEK2” value at CHEK2 was determined as 1.3 °C.
As to `CC(C)OC(=O)c1cc(Nc2ccnc(NCc3ccc(NC(=O)OC(C)(C)C)cc3)n2)n[nH]1` [42d, isopropyl 3-((2-((4-((tert-butoxycarbonyl)amino)benzyl)amino)pyrimidin-4-yl)amino)-1H-pyrazole-5-carboxylate], the “ΔTm PKMYT1” value on PKMYT1 was -3.2 °C. Further, the “ΔTm BMX” value on BMX is -0.1 °C. The “ΔTm GAK” value on GAK was -0.9 °C. The “ΔTm CASK” value on CASK was 0.4 °C. Besides, the “ΔTm MAPK1” value at MAPK1 was -0.1 °C. Also, the “ΔTm CAMK1G” value at CAMK1G is -0.2 °C. In addition, the “ΔTm ABL1” value at ABL1 is 1.0 °C. On PHKG2, the “ΔTm PHKG2” value is -0.2 °C. Further, on FES, the “ΔTm FES” value was 0.1 °C. Moreover, at CAMK1D, the “ΔTm CAMK1D” value is -2.4 °C. For the same compound, on CDKL1, the “ΔTm CDKL1” value came to 1.7 °C. Moreover, on CHEK2, the “ΔTm CHEK2” value came out at 0.6 °C.
Turning to `COC(=O)c1cc(Nc2ccnc(NCCOCCNC(=O)OC(C)(C)C)n2)[nH]n1` [21d, methyl 5-((2-((2-(2-((tert-butoxycarbonyl)amino)ethoxy)ethyl)amino)pyrimidin-4-yl)amino)-1H-pyrazole-3-carboxylate], the “ΔTm PKMYT1” value on PKMYT1 came to 1.0 °C. For the same compound, at BMX, the “ΔTm BMX” value stood at 0.2 °C. Moreover, the “ΔTm GAK” value on GAK worked out at 2.1 °C. The “ΔTm CASK” value at CASK is 0.4 °C. For the same compound, on MAPK1, the “ΔTm MAPK1” value was found to be 0.3 °C. Besides, on CAMK1G, the “ΔTm CAMK1G” value amounted to 0.4 °C. In addition, on ABL1, the “ΔTm ABL1” value was 1.2 °C. For the same compound, the “ΔTm PDK4” value at PDK4 amounted to 1.8 °C. Moreover, the “ΔTm PHKG2” value on PHKG2 stood at 0.5 °C. Moreover, the “ΔTm FES” value at FES amounted to 1.5 °C. Further, the “ΔTm RIOK1” value at RIOK1 was found to be 0.1 °C. For the same compound, on CAMK1D, the “ΔTm CAMK1D” value stood at 1.4 °C. At CDKL1, the “ΔTm CDKL1” value was 0.1 °C. For the same compound, the “ΔTm CHEK2” value on CHEK2 turned out to be 2.5 °C.
As for `N#CCc1ccc(Nc2nccc(Nc3cc(C4CC4)[nH]n3)n2)cc1` [compound 1, reference compound], the “ΔTm PKMYT1” value at PKMYT1 came to 1.0 °C. Also, on BMX, the “ΔTm BMX” value was found to be 4.4 °C. At GAK, the “ΔTm GAK” value was 8.0 °C. Moreover, the “ΔTm CASK” value on CASK was 2.0 °C. Besides, on MAPK1, the “ΔTm MAPK1” value was 8.5 °C. Moreover, the “ΔTm CAMK1G” value at CAMK1G was 5.5 °C. The “ΔTm ABL1” value at ABL1 worked out at 8.7 °C. Also, the “ΔTm PDK4” value on PDK4 was determined as 1.2 °C. Moreover, the “ΔTm PHKG2” value on PHKG2 came out at 8.8 °C. On FES, the “ΔTm FES” value was found to be 4.5 °C. For the same compound, the “ΔTm RIOK1” value on RIOK1 came out at 4.9 °C. Moreover, the “ΔTm CAMK1D” value on CAMK1D is 5.4 °C. The “ΔTm CDKL1” value at CDKL1 stood at 6.8 °C. Further, the “ΔTm CHEK2” value on CHEK2 was found to be 8.6 °C.
As to `COC(=O)c1cc(Nc2ccnc(NCc3ccc(NC(=O)OC(C)(C)C)cc3)n2)[nH]n1` [21i, methyl 5-((2-((4-((tert-butoxycarbonyl)amino)benzyl)amino)pyrimidin-4-yl)amino)-1H-pyrazole-3-carboxylate], the “ΔTm PKMYT1” value at PKMYT1 was determined as 0.2 °C. The “ΔTm BMX” value at BMX was -0.1 °C. Further, on GAK, the “ΔTm GAK” value turned out to be 1.3 °C. Also, the “ΔTm CASK” value at CASK turned out to be 0.2 °C. The “ΔTm MAPK1” value on MAPK1 came out at 0.7 °C. Further, at CAMK1G, the “ΔTm CAMK1G” value amounted to 0.4 °C. Further, at ABL1, the “ΔTm ABL1” value is 0.7 °C. Besides, the “ΔTm PDK4” value at PDK4 turned out to be 0.9 °C. Further, the “ΔTm PHKG2” value at PHKG2 was -0.3 °C. In addition, the “ΔTm FES” value at FES is 0.0 °C. Besides, the “ΔTm RIOK1” value on RIOK1 is 0.8 °C. The “ΔTm CAMK1D” value at CAMK1D was -0.5 °C. Also, the “ΔTm CDKL1” value on CDKL1 is 0.5 °C. Besides, the “ΔTm CHEK2” value on CHEK2 came to 0.6 °C.
